Experimental data reported in patent US20230086152A1, “USE OF DESLORATADINE AND SALTS THEREOF IN PREPARING DRUG FOR TREATING NEURODEGENERATIVE DISEASE RELATED TO MOTOR DYSFUNCTION” (NANJING UNIVERSITY OF CHINESE MEDICINE, priority 2021, published 2023).

Tests used:
Format in all cases: in vivo
[1] = tested on: SOD1-G93A model mice; experiment: Detection of onset time and survival cycle; details: model DLT group 20 mg/kg/day from the age of 56 days, p<0.05
From the text: 4) Detection on onset time and survival cycle: The duration from onset to death of SOD1-G93A model mice is shorter, which is similar to the human ALS. Whether it can effectively delay the onset of the disease and prolong the survival cycle is an important indicator.
(§1) 1) Animal grouping: Experimental test mice B6SJL-BTg (SOD1-G93A) 1Gur/J (002726) are purchased from Jackson Laboratory in the United States. A total of 48 SOD1-G93A mice are obtained by the gene identification, and their littermates are used as negative control, and they are randomly divided into 4 groups, which are: (1) a wild-type solvent group (2) a wild-type DLT group (20 mg/kg/day), (3) a model solvent group and (4) a model DLT group (20 mg/kg/day). All mice are administered from the age of 56 days (8 weeks old), and 12 mice in each group are sacrificed from the beginning of administration to the age of 120 days. […]
5) Detection of onset time and survival cycle: The onset time of transgenic mice is defined as the dates when they first fall from the rotarod apparatus and will not persist for 180 seconds. The dates of deaths of the transgenic mice are defined as the deaths of the mice if the righting reflex cannot be completed within 30 seconds when the mice are lying on their sides, and the days are recorded as the death dates of the mice.

[2] = tested on: SOD1-G93A model mice; experiment: Gait monitoring experimental test; details: model DLT group 20 mg/kg/day vs model solvent group; after the 15th week; FIG. 2
Method: (§2) 1) Animal grouping: Experimental test mice B6SJL-BTg (SOD1-G93A) 1Gur/J (002726) are purchased from Jackson Laboratory in the United States. A total of 48 SOD1-G93A mice are obtained by the gene identification, and their littermates are used as negative control, and they are randomly divided into 4 groups, which are: (1) a wild-type solvent group (2) a wild-type DLT group (20 mg/kg/day), (3) a model solvent group and (4) a model DLT group (20 mg/kg/day). All mice are administered from the age of 56 days (8 weeks old), and 12 mice in each group are sacrificed from the beginning of administration to the age of 120 days. Histopathological, biochemical and immunological analyses are performed on tissues such as blood, muscles and spinal cords from eyeballs of mice. Compounds are administered to the remaining mice until their deaths, which is used to detect the onset time and survival cycle of mice.
3) Gait monitoring experimental test: In order to obtain footprints, the forefeet and hind feet of SOD1-G93A model mice are painted with red and green non-toxic pigments, respectively. The mice walk along a track with a length of 50 cm and a width of 10 cm, and the gaits of the mice are recorded. […] Footprints of the mice are analyzed, and the average of three result statistics is used in the analysis for recording the gait lengths of the mice.

[3] = tested on: SOD1-G93A model mice; experiment: Cage experimental test (limb grip strength); details: model DLT group 20 mg/kg/day vs model solvent group; age of 14 to 15 weeks; FIG. 3
From the text: 3) Cage experimental test: The SOD1-G93A model mice show atrophy of the hind limbs and decreased grip strength of the limbs after the onset of the disease. The handing strength at the limbs of the mice is detected by the cage experimental test.
as §2, with “Compounds are administered to the remaining mice until their deaths, which is used to detect the onset time and survival cycle of mice.” left out
4) Cage experimental test: From the 8th week, the test is carried out once a week. […] The maximum time for the mice to grip the cage cover is recorded, the maximum time is set to be 90 seconds, and the specific time is recorded when it is less than 90 seconds. […]

[4] = tested on: SOD1-G93A model mice; experiment: Rotarod experimental test; details: model DLT group 20 mg/kg/day vs model solvent group; days 101 to 115; FIG. 1
From the text: 1) Rotarod experimental test: SOD1-G93A model mice will have motor dysfunction when they are onset, and therefore, the motor coordination and balance function of the forelimb and hind limbs can be assessed by detecting the duration that the mice stay on the rotarod.
as §1
2) Rotarod experimental test: From the age of 60 days, the motor function of SOD1-G93A model mice is detected by the rotarod apparatus. […] Motor coordination and balance are evaluated for each mouse by measuring the mouse's total movement time on the rotarod apparatus. Three trials are performed for each mouse, and the longest dwell time before falling is recorded, and the longest dwell time is set at 180 seconds.

## Clc1ccc2c(c1)CCc1cccnc1C2=C1CCNCC1 [desloratadine]
[1]; model solvent group 97.6±1.473 d, FIG. 4
  onset time (first fall from the rotarod): 103.4 ± 1.705 days
[1]; model solvent group 126±1.721 d, FIG. 5
  survival cycle (failure to complete the righting reflex within 30 seconds): 131.6 ± 1.51 days
[2]
  gait length analysis: significantly better
[3]
  persistence in gripping the cage cover: persist better
[4]
  time stayed on the rotarod: much longer period of time
